Test results: US20240425867A1, “NUCLEIC ACID-BASED ASSEMBLY AND USES THEREOF” (Rheinische Friedrich-Wilhelms-Universität Bonn, priority 2016, published 2024)

Assays:
[1] = biological target: T1, cMet (Homo sapiens, UniProt P08581); test: Competitive filter-binding assay against γ-32P-labeled trCLN3; conditions: competition with γ-32P-trCLN3, cMet ~50 nM, competitor 1 μM-25 pM, 37° C.
T1 construct: cMet-Fc, which represents the ectodomain of cMet fused to the Fc domain of human IgG1 was purchased from R&D Systems; purchased R&D Systems
Description: To test the effect of lipid-modification on trCLN3 binding properties, we determined IC50 values for each trCLN3 derivative by a competitive filter retention assay in which varying concentrations of unlabeled 5′-(1-dodecynyl)-functionalized trCLN3 aptamers competed with constant amounts of γ-^32P-labeled trCLN3 in binding to cMet. Two control experiments were also performed using unlabeled trCLN3 and its two point mutant variant trCLN3.mut as competitors.
First, the trCLN3 motif was 5′-end-labeled with γ-^32P ATP using T4 polynucleotide kinase. An aliquot of 20 μL solution containing 50 pmol trCLN3. 6.7 pmol γ-^32P ATP and 20 U T4 polynucleotide kinase in 1× polynucleotide kinase buffer (New England Biolabs) was incubated at 37° C. for 45 min. followed by removal of unreacted γ-^32P ATP using an Illustra G-25 microspin column (GE Healthcare. München, Germany). The purity of the radiolabeled aptamer was confirmed using a 10% PAGE-gel.
0.25 mg/ml BSA. 2 mM MgCl2 in 1×PBS, pH 7.4. […] Residual radioactivity due to cMet bound labeled aptamers was quantified using Fujifilm Fla-3000 PhosphorImager and AIDA software. The curves were fitted with GraphPadPrism 3.02 plotting non-linear regression curve and the IC50 values have been calculated assuming a competition for single binding site.

[2] = Critical micelle concentration from pyrene fluorescence; type: physicochemical; conditions: pyrene 100 μM
Description: Critical micelle concentration (CMC) value of the trCLN3-L4 motif was further confirmed by internalizing pyrene into the hydrophobic-lipid core of the micellar aggregate followed by measuring the fluorescence of pyrene-loaded trCLN3-L4 nanoconstructs at different concentrations. For this experiment a fixed amount of pyrene in acetone was transferred to an empty tube and acetone was allowed to evaporate in the dark at 45° C. for 30 min using an Eppendorf concentrator. trCLN3-L4 solutions in the concentration range between 0.0005-0.5 mg/ml were then added to yield a final pyrene concentration fixed at 100 μM for all reactions (Table 3). The solutions were incubated at 90° C. for 10 minutes in the dark and slowly cooled down to room temperature overnight at a rate of 1° C./10 min in order to internalize pyrene into the hydrophobic lipid core. The pyrene-loaded trCLN3-L4 nanoconstructs were transferred into a 384-multi well plate and the fluorescence emission spectrum of each well was recorded at room temperature by using an excitation wave length of 339 nm in an EnSpire® Multimode Plate Reader (PerkinElmer).
In close proximity, two pyrene molecules form an excimer that emits fluorescence at a longer wavelength compared to the monomer emission. The formed excimer is a dimeric complex where one molecule exists in an excited state and the other molecule in a ground state. Monomer emission of pyrene occurs within a range of 360-400 nm whereas the excimer emission is obtained within the wavelength limit of 465-500 nm. The critical micelle concentration was determined by the distinguishable pyrene excimer fluorescence of the corresponding DNA concentration. See G. Uddin G et al., Am. J. Biochem. Mol. Biol. 2013, 3, 175-181; which reference is incorporated herein in its entirety.

[3] = Serum stability in PBS-buffered fetal calf serum (PAGE of 32P-labeled aptamer); type: in vitro ADME; conditions: 10% PBS-buffered FCS, 37° C., 0 to 72 h
Description: Serum stabilities of trCLN3, its two point mutant non-binding variant trCLN3.mut and their corresponding lipid-functionalized derivatives trCLN3-L4 and trCLN3.mut-L4 were investigated in fetal calf serum (FCS) and human blood serum. For this purpose, the aptamer motifs were labeled at their 5′-end with ^32P to form radiolabeled oligonucleotides. The degradation tests of all the aptamer motifs were performed for 60-72 h at 37°° C. 6 pmol (12 μl of 0.5 μM) of the radio-labeled aptamer (5′-end-labeled with γ-^32P) was incubated in a volume of 300 μl freshly thawed PBS-buffered FCS or human blood serum (270 μl serum+30 μl 10×PBS). For each measurement, 10 μl of the samples were removed, mixed with 90 μl of gel loading buffer (80% formamide+5 mM EDTA+0.01% SDS) and subsequently stored at −20° C. Aliquots of samples were taken after indicated time intervals of 0, 0.3, 1.5, 3, 6, 24, 48, 60 and 72h respectively. The serum stability of the aptamer in FCS or in HBS at different time intervals were analyzed on a denaturing PAGE by loading 10 μl of each sample onto a 10% TAE-Urea gel and running the gels for 90 minutes at 350 V. Gels were wrapped in clingfilm and exposed to a phosphorimager screen in a closed cassette over a period of 12 h and finally the residual intact aptamer bands were analyzed by scanning the screen in a phosphorimage-scanner (FujiFilm FLA 3000). Intensities of the residual intact aptamer bands were calculated applying AIDA image analyzer software program. Serums half-lives of the selected aptamers were determined by using a half-life curve-fitting data analysis program (GraphPad Prism).

T1 sequence (P08581 25-932 limits assumed): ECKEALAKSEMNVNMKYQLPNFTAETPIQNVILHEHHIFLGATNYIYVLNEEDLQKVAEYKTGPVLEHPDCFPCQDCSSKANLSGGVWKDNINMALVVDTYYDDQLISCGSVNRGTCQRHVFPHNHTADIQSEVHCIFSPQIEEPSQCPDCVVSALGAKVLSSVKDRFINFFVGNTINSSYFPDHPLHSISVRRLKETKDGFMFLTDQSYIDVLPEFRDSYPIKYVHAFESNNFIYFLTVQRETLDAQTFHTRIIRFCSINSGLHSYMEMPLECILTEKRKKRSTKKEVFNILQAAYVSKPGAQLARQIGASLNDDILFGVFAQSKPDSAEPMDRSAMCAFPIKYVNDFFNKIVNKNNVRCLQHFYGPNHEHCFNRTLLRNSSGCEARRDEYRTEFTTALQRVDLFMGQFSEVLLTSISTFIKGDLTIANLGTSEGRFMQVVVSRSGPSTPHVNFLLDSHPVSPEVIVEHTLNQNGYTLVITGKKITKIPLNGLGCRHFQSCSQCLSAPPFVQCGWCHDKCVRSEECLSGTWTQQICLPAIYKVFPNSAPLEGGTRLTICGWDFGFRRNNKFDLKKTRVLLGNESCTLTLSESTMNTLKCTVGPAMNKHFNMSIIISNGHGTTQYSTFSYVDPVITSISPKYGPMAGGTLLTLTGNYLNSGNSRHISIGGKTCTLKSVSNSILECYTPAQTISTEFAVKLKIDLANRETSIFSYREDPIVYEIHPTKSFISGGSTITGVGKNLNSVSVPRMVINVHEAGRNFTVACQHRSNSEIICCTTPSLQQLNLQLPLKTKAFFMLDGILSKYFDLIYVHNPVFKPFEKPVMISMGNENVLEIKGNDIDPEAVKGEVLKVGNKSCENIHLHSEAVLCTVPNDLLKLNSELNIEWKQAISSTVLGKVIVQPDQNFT

Question: What does the source list for “trCLN3-L4: trCLN3 aptamer with four C12-lipid-modified dU residues at the 5′-end; self-assembles into micellar nanoconstructs (TGGATGGTAGCTCGGTCGGGGTGGGTGGGTTGGCAAGTCT; four 5' C12-lipid-modified dU residues, chemistry not fully specified)”?
Answer: IC50 [1]: 0.043 µM; I475/I373 ([2]; trCLN3-L4 0.0005 mg/mL (0.035 μM)): 0.20; I475/I373 ([2]; trCLN3-L4 0.001 mg/mL (0.07 μM)): 0.23; I475/I373 ([2]; trCLN3-L4 0.0025 mg/mL (0.175 μM)): 0.72; I475/I373 ([2]; trCLN3-L4 0.005 mg/mL (0.35 μM)): 1.98; I475/I373 ([2]; trCLN3-L4 0.01 mg/mL (0.7 μM)): 1.57; I475/I373 ([2]; trCLN3-L4 0.025 mg/mL (1.75 μM)): 2.49; I475/I373 ([2]; trCLN3-L4 0.05 mg/mL (3.5 μM)): 4.69; I475/I373 ([2]; trCLN3-L4 0.1 mg/mL (7.0 μM)): 5.13; I475/I373 ([2]; trCLN3-L4 0.25 mg/mL (17.4 μM)): 6.90; I475/I373 ([2]; trCLN3-L4 0.5 mg/mL (35 μM)): 7.83; serum half-life (t1/2) [3]: no significant degradation even up to 72 h
